Measurements: ChEMBL document CHEMBL4052712, “Design and optimization of highly-selective, broad spectrum fungal CYP51 inhibitors” (Bioorg Med Chem Lett, 2017)
Calls of active or inactive are those of the source. No cut-off for these calls is given here.

Key:
Cytochrome P450 3A4 = Cytochrome P450 3A4 (Homo sapiens, UniProt P08684); experiment: Inhibition of CYP3A4 in human hepatocyte microsomes using testosterone substrate by HPLC/MS/MS method; type: ADME
[1] = molecular target: Lanosterol 14-alpha demethylase (Candida albicans (strain SC5314 / ATCC MYA-2876) (Yeast), UniProt P10613); experiment: Inhibition of CYP51 in Candida albicans assessed as inhibition of microbe growth incubated for 48 hrs by CLSI M27-A3 guideline based method
[2] = molecular target: T1, Lanosterol 14-alpha demethylase (Aspergillus) (UniProt B8NUK6+Q9P8R0+G4WW85); experiment: Inhibition of CYP51 in Aspergillus fumigatus assessed as inhibition of microbe growth incubated for 48 to 168 hrs by CLSI M27-A3 guideline based method
[3] = molecular target: Lanosterol 14-alpha demethylase (Candida glabrata (strain ATCC 2001 / BCRC 20586 / JCM 3761 / NBRC 0622 /NRRL Y-65 / CBS 138) (Yeast) (Nakaseomyces glabratus)) (UniProt P50859); experiment: Inhibition of CYP51 in Candida glabrata assessed as inhibition of microbe growth incubated for 48 hrs by CLSI M27-A3 guideline based method
Cryptococcus neoformans = experiment: Inhibition of CYP51 in Cryptococcus neoformans assessed as inhibition of microbe growth incubated for 48 hrs by CLSI M27-A3 guideline based method
[4] = molecular target: T1, Lanosterol 14-alpha demethylase (Aspergillus); experiment: Inhibition of CYP51 in Aspergillus flavus assessed as inhibition of microbe growth incubated for 48 to 168 hrs by CLSI M27-A3 guideline based method
[5] = molecular target: T2, Lanosterol 14-alpha demethylase (Trichophyton rubrum (strain ATCC MYA-4607 / CBS 118892) (Athlete'sfoot fungus)) (UniProt F2SHH3); experiment: Inhibition of CYP51 in Trichophyton rubrum assessed as inhibition of microbe growth incubated for 48 hrs by CLSI M27-A3 guideline based method
T2 sequence (whole entry): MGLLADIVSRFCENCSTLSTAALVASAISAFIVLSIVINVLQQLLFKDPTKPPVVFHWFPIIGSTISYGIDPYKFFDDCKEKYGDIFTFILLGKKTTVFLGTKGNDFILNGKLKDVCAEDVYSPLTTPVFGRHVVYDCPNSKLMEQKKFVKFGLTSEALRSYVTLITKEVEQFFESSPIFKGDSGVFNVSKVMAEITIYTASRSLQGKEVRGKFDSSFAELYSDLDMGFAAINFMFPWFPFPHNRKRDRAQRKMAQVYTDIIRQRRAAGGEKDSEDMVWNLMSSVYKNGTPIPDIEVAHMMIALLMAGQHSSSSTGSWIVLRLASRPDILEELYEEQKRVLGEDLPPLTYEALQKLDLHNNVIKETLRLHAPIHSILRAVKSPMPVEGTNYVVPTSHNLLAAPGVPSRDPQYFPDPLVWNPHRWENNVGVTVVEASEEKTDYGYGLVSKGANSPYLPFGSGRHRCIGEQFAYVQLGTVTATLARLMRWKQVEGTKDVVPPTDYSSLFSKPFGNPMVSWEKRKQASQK

Lanosterol 14-alpha demethylase, sequence (P10613 whole entry): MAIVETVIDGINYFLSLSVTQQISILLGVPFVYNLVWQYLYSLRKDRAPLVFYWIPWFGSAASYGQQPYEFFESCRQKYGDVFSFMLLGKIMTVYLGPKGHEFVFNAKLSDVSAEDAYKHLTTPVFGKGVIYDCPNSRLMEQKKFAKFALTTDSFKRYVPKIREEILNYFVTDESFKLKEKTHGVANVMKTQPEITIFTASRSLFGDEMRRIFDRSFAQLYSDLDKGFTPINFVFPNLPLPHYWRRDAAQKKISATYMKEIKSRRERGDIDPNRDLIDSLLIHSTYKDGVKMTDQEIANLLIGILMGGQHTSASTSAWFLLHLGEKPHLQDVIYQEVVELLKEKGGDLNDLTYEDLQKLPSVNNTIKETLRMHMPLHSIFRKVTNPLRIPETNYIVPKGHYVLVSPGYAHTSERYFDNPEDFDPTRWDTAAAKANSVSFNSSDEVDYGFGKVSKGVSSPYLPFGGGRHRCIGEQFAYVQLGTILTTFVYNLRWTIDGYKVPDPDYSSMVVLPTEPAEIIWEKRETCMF
Cytochrome P450 3A4, sequence (P08684 whole entry): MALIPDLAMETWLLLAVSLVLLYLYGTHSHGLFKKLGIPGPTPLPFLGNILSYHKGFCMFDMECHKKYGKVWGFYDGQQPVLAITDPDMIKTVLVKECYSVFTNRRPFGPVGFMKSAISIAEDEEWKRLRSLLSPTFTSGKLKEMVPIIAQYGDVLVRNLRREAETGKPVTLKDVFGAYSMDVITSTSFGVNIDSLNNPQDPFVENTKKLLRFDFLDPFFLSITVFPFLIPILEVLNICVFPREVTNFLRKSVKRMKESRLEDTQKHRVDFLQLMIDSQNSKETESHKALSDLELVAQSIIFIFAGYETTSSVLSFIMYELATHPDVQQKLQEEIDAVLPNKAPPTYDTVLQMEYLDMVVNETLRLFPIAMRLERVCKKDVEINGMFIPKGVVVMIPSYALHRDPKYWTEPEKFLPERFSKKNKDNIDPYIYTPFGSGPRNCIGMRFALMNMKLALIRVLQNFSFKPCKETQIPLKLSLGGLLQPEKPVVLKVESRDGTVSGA
Lanosterol 14-alpha demethylase (Candida glabrata (strain ATCC 2001 / BCRC 20586 / JCM 3761 / NBRC 0622 /NRRL Y-65 / CBS 138) (Yeast) (Nakaseomyces glabratus)), sequence (P50859 whole entry): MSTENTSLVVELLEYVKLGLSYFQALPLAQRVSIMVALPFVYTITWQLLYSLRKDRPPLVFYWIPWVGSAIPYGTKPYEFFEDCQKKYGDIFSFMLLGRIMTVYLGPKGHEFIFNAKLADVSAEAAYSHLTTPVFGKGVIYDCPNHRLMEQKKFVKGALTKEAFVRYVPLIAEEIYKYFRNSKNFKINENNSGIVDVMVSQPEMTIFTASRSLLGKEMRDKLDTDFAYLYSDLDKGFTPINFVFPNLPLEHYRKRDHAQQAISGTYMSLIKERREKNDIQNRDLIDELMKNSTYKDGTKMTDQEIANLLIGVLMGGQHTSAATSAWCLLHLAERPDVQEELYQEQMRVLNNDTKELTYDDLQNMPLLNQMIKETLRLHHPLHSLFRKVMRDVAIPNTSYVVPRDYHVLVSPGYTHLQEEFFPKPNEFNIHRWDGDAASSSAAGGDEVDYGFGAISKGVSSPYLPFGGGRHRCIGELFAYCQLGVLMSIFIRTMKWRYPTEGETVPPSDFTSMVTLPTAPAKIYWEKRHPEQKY

Structure (SMILES)	IC50 (Cytochrome P450 3A4) [µM]	MIC50 [1] [µg/mL]	MIC100 [2]	also measured
OC(Cn1cnnn1)(c1ccc(F)cc1F)C(F)(F)c1ccc(C#Cc2ccc(C(F)(F)F)cc2)cn1 (centres undefined)	> 200	0.016	> 64 µg/mL	
OC(Cn1cnnn1)(c1ccc(F)cc1F)C(F)(F)c1ccc(C#Cc2ccc(OCC(F)F)cc2)cn1 (centres undefined)	60	< 0.001	64 µg/mL	
OC(Cn1cnnn1)(c1ccc(F)cc1F)C(F)(F)c1ccc(C#Cc2cccc(Cl)c2)cn1 (centres undefined)	> 200	0.031	> 64 µg/mL	
OC(Cn1cnnn1)(c1ccc(F)cc1F)C(F)(F)c1ccc(C#Cc2ccc(OCc3ccc(OC(F)(F)F)cc3)cc2)cn1 (centres undefined)	> 200	0.25	> 64 µg/mL	
OC(Cn1cnnn1)(c1ccc(F)cc1F)C(F)(F)c1ccc(C#Cc2ccc(Cl)cc2)cn1 (centres undefined)	> 200	0.004	> 64 µg/mL	
OC(Cn1cnnn1)(c1ccc(F)cc1F)C(F)(F)c1ccc(C#Cc2ccc(NCC(F)(F)F)cc2)cn1 (centres undefined)	10	< 0.001	4 µg/mL	
OC(Cn1cnnn1)(c1ccc(F)cc1F)C(F)(F)c1ccc(C#Cc2cccc(F)c2)cn1 (centres undefined)	> 200	0.004	> 64 µg/mL	
N#Cc1ccc(COc2ccc(C#Cc3ccc(C(F)(F)C(O)(Cn4cnnn4)c4ccc(F)cc4F)nc3)cc2)c(F)c1 (centres undefined)	> 200	0.16	> 64 µg/mL	
OC(Cn1cnnn1)(c1ccc(F)cc1F)C(F)(F)c1ccc(C#Cc2ccc(OCc3ccc(CC(F)F)cc3)cc2)cn1 (single isomer, unassigned; (+)) [listing 1 of 2 here]	> 200	0.031		
OC(Cn1cnnn1)(c1ccc(F)cc1F)C(F)(F)c1ccc(C#Cc2ccc(F)cc2)cn1 (single isomer, unassigned; (+)) [listing 1 of 2 here]	198	< 0.001		
N#Cc1ccc(COc2ccc(C#Cc3ccc(C(F)(F)C(O)(Cn4cnnn4)c4ccc(F)cc4F)nc3)cc2)cc1F (single isomer, unassigned; (+)) [listing 1 of 2 here]	> 200	0.004		
OC(Cn1cnnn1)(c1ccc(F)cc1F)C(F)(F)c1ccc(C#Cc2ccc(F)cc2)cn1 (single isomer, unassigned; (+)) [listing 2 of 2 here]			16 µg/mL	
OC(Cn1cnnn1)(c1ccc(F)cc1F)C(F)(F)c1ccc(C#Cc2ccc(OCc3ccc(CC(F)F)cc3)cc2)cn1 (single isomer, unassigned; (+)) [listing 2 of 2 here]			2 µg/mL	
OC(Cn1cnnn1)(c1ccc(F)cc1F)C(F)(F)c1ccc(C#Cc2ccc(F)cc2)cn1 (single isomer, unassigned; (-))			inactive	
OC(Cn1cnnn1)(c1ccc(F)cc1F)C(F)(F)c1ccc(C#Cc2ccc(F)cc2)cn1 (stereo in doubt; 6a) [listing 1 of 2 here]	100			
OC(Cn1cnnn1)(c1ccc(F)cc1F)C(F)(F)c1ccc(C#Cc2ccc(F)cc2)cn1 (stereo in doubt; 6a) [listing 2 of 2 here]			> 64 µg/mL	
OC(Cn1cnnn1)(c1ccc(F)cc1F)C(F)(F)c1ccc(C#Cc2ccc(OCc3ccc(CC(F)F)cc3)cc2)cn1 (stereo in doubt; 7e) [listing 1 of 2 here]	> 200	0.0625		
OC(Cn1cnnn1)(c1ccc(F)cc1F)C(F)(F)c1ccc(C#Cc2ccc(OCc3ccc(CC(F)F)cc3)cc2)cn1 (stereo in doubt; 7e) [listing 2 of 2 here]			4 µg/mL	
O[C@@](Cn1cnnn1)(c1ccc(F)cc1F)C(F)(F)c1ccc(-c2ccc(OCC(F)(F)F)cc2)cn1 [OTESECONAZOLE]	65	< 0.001	> 64 µg/mL	

Second part, led by results:

IC50 (Cytochrome P450 3A4) [µM]	MIC50 [1] [µg/mL]	MIC100 [2]	Structure (SMILES)	also measured
> 200	0.0625	32 µg/mL	OC(Cn1cnnn1)(c1ccc(F)cc1F)C(F)(F)c1ccc(C#Cc2ccc(OCc3ccc(F)cc3)cc2)cn1 (centres undefined)	
> 200	0.016	> 64 µg/mL	N#Cc1cccc(COc2ccc(C#Cc3ccc(C(F)(F)C(O)(Cn4cnnn4)c4ccc(F)cc4F)nc3)cc2)c1 (centres undefined)	
122	0.031	> 64 µg/mL	CNC(=O)c1ccc(COc2ccc(C#Cc3ccc(C(F)(F)C(O)(Cn4cnnn4)c4ccc(F)cc4F)nc3)cc2)cc1 (centres undefined)	
> 200	0.016	> 64 µg/mL	N#Cc1ccc(COc2ccc(C#Cc3ccc(C(F)(F)C(O)(Cn4cnnn4)c4cc(F)ccc4F)nc3)cc2)cc1 (centres undefined)	
> 200	0.031	> 64 µg/mL	N#Cc1ccc(COc2ccc(C#Cc3ccc(C(F)(F)C(O)(Cn4cnnn4)c4ccc(Cl)cc4F)nc3)cc2)cc1 (centres undefined)	
> 200	0.031	> 64 µg/mL	N#Cc1ccc(OCc2ccc(C#Cc3ccc(C(F)(F)C(O)(Cn4cnnn4)c4ccc(F)cc4F)nc3)cc2)cc1 (centres undefined)	
> 200	0.125	> 64 µg/mL	OC(Cn1cnnn1)(c1ccc(F)cc1F)C(F)(F)c1ccc(C#Cc2ccc(OCc3ccc(C(F)(F)F)cc3)cc2)cn1 (centres undefined)	
		0.25 µg/mL	N#Cc1ccc(COc2ccc(C#Cc3ccc(C(F)(F)C(O)(Cn4cnnn4)c4ccc(F)cc4F)nc3)cc2)cc1 (single isomer, unassigned; (+))	MIC50 [3]: 0.12 µg/mL; MIC50 (Cryptococcus neoformans): 0.0019 µg/mL; MIC100 [4]: 0.5 µg/mL; MIC50 [5]: 0.25 µg/mL
		0.5 µg/mL	N#Cc1ccc(COc2ccc(C#Cc3ccc(C(F)(F)C(O)(Cn4cnnn4)c4ccc(F)cc4F)nc3)cc2)cc1F (single isomer, unassigned; (+)) [listing 2 of 2 here]	
> 200	0.031		N#Cc1ccc(COc2ccc(C#Cc3ccc(C(F)(F)C(O)(Cn4cnnn4)c4ccc(F)cc4F)nc3)cc2)cc1 (stereo in doubt; 7f) [listing 1 of 2 here]	
		8 µg/mL	N#Cc1ccc(COc2ccc(C#Cc3ccc(C(F)(F)C(O)(Cn4cnnn4)c4ccc(F)cc4F)nc3)cc2)cc1 (stereo in doubt; 7f) [listing 2 of 2 here]	
> 200	0.031		N#Cc1ccc(COc2ccc(C#Cc3ccc(C(F)(F)C(O)(Cn4cnnn4)c4ccc(F)cc4F)nc3)cc2)cc1F (stereo in doubt; 8a) [listing 1 of 2 here]	
		1 µg/mL	N#Cc1ccc(COc2ccc(C#Cc3ccc(C(F)(F)C(O)(Cn4cnnn4)c4ccc(F)cc4F)nc3)cc2)cc1F (stereo in doubt; 8a) [listing 2 of 2 here]	
